{
  "source": "patent US20070274915A1",
  "about": "“Modulation Of Anergy And Methods For isolating Anergy-Modulating Compounds” (priority 2003, published 2007)",
  "key": {"D5 T cells": {"test_system": "D5 T cells", "experiment": "Ionomycin-induced anergy in D5 Th1 cells, immunoblot of signaling proteins and E3 ligases", "assay_type": "cell-based, murine", "experimental": "(§1) The murine D5 (Ar-5) Th1 cell clone was grown as previously described (F. Macian et al., Cell 109, 719-31 (2002). CD4+ cells were isolated from spleen and lymph nodes of DO11.10 or 2B4 TCR-transgenic mice using positive selection with anti-CD4 magnetic beads (Dynal), and differentiated into Th1 cells for 2 weeks using standard protocols (id.). Anergy was induced by treating primary Th1 cells or the D5 Th1 clone (10^6 cells/ml) with 1 μM ionomycin for 16 hours, Cyclosporin A was included in some experiments at a concentration of 2 μM. The cells were then washed to remove the ionomycin and incubated at higher cell density (˜3×10^6 cells/ml) for 1-2 hours at 37 C. In the experiment of FIG. 14, a high-density incubation step was included. The extent of anergy induction was evaluated by intracellular cytokine staining or in standard proliferation assays (id.). Restimulation of D5 cells was done with 1 μg/ml anti-CD3 with or without 2.5 μg/ml anti-CD28 or with 20 nM PMA or 1 μM Ionomycin or both. HEK 293 cells were grown and transfected with Ca2+ phosphate using standard protocols.\nD5 cells were extracted at 10^6 cells/10 μl in RIPA buffer (20 mM Tris pH 7.5, 250 mM NaCl, 1 mM DTT, 10 mM MgCl2, 1% Nonidet P-40, 0.1% SDS, 0.5% sodium deoxycholate) supplemented with protease and phosphatase inhibitors (1 mM PMSF, 25 μg/ml aprotinin, 25 μg/ml leupeptin, 10 mM NaF, 8 mM β glycerophosphate, 0,1 mM sodium ortho vanadate). For assessing protein levels in cell extracts, 5-30 μl of RIPA extracts were separated on 9-12% SDS-polyacrylamide gels, and proteins were electrotransferred onto nitrocellulose membranes. For immunoprecipitations, 500-1000 μl of RIPA cell extracts were used. For coimmunoprecipitations from lysates of transfected HEK 293 cells, cells from one 10 cm dish were lysed in 50 mM Hepes pH 7.5, 100 mM NaCl, 1 mM EDTA, 0,5% NP-40 and 10% glycerol including phosphatase and protease inhibitors. Lysates were precleared with either protein A- or protein G-Sepharose, immunoprecipitations were performed for 4 hrs and the resulting precipitates were washed 3-4 times with the buffer used for cell extraction. Immunoblots were performed with antibody solutions in 5% milk and TBS (10 mM TrisCl (pH 8.0), 150 mM NaCl) and washes were done in TBS containing 0.05% Tween-20."}, "AND T cell blasts": {"test_system": "AND T cell blasts", "experiment": "Stability of mature immunological synapses on lipid bilayers after phospholipase inhibitors", "assay_type": "cell-based", "experimental": "(§2) Planar bilayers were prepared essentially as described in (Grakoui et al., Science 285, 221-7 (1999)), except that the MCC88-103 peptide was loaded on the GPI-IEk for 24 hours. Bilayers were prepared using Oregon green labeled GPI-IEk and Cy5 labeled GPI-ICAM-1 in parallel plate flow cells (Bioptechs). Control and ionomycin treated cells were injected into the flow cell at a density of 10^6 cells/ml. Areas of bilayers where cells were forming synapses were imaged using FITC and Cy5 optics on an Olympus IX-70 inverted microscope equipped with a amamtsu ORCA-ER digital camera and a Xenon-arc lamp as a light source for fluorescence microscopy. […] Bright field, interference reflection (IRM) and fluorescence images were collected and processed using the Metamorph software. The background from the fluorescence images was subtracted using the produce background correction image function which is based on median filtering to subtract background that is nonuniform. Percentage of cells adhering were analyzed by comparing bright field and IRM images.\nExperiments using phospholipase inhibitors were performed using AND T cell blasts (day 8). […] After 60 minutes, fields containing stable immunological synapses with central MHC clusters (green) and complete ICAM-1 rings (red) were imaged and the locations recorded using an automated stage and IPLab software. […]"}, "[1]": {"test_system": "Th1 cells from BALB/c mice", "experiment": "Pulse-chase of PKCθ in Th1 cells", "assay_type": "cell-based", "details": "ionomycin 16 h, pulse-chase with plate-bound anti-CD3", "experimental": "FIG. 21 is a set of autoradiograms illustrating calcineurin-dependent degradation of PKCθ in anergic T cells. Th1 cells from BALB/c mice were left untreated or pretreated with ionomycin for 16 h, pulse-labeled for 2 h with ^35S cysteine/methionine, washed and stimulated with plate-bound anti-CD3 antibody during the indicated chase periods. PKCθ immunoprecipitates were analyzed by autoradiography.\nCD4 cells were isolated via dynal beads selection, cells were starved for 1 hr in cysteine/methionine free media and incubated for 2 hrs with 100 μCi/ml 35S-cysteine and -methionine. Cells were washed, resuspended in complete media and stimulated with 2 μg/ml anti-CD3 on crosslinking antibody coated plates. Cells were extracted in RIPA buffer and immunoprecipitations performed as described above. Immunoprecipitates were resolved on SDS-PAGE, that were treated with Enhance solution (NEN), dried and used for autoradiographs. Densitometric analysis was performed using IQ-Mac vs 1.2 software."}, "D5 cells": {"test_system": "D5 cells", "experiment": "Real-time RT-PCR of E3 ligase and PLC-γ1 mRNA levels in D5 cells", "assay_type": "cell-based, murine", "details": "ionomycin-treated T cells", "experimental": "Total RNA was prepared from untreated or ionomycin-pretreated D5 cells using Ultraspec reagent (Biotecx). cDNAs were synthesized from 2 μg of total RNA as template, using a cDNA synthesis kit (Invitrogen). Quantitative real time-PCR was performed in an I-Cycler (BioRad) using a SYBR Green PCR kit (Applied Biosystems). The sequences of the primer pairs are as follows:\nThermal cycling conditions were 95° C. for 5 min, then 40 cycles of 95° C., 65° C., and 72° C. for 30 sec each, terminating with a single cycle at 72° C. for 5 min. Signals were captured during the polymerization step (72° C.). A threshold was set in the linear part of the amplification curve, and the number of cycles needed to reach it was calculated for each gene. Melting curve analysis and agarose gel electrophoresis were performed to test the purity of the amplified bands. Normalization was performed by using L32 levels as an internal control for each sample. The ratio of mRNA levels in ionomycin-treated or ionomycin/CsA treated to untreated samples were determined."}, "HEK 293 cells": {"test_system": "HEK 293 cells", "experiment": "PLC-γ1 ubiquitination in transfected HEK 293 cells", "assay_type": "cell-based", "details": "3 μM ionomycin for 30 min", "experimental": "FIG. 17C is a chart and a set of immunoblots illustrating that Itch induces mono-, di- and poly-ubiquitination of PLC-γ1. HEK 293 cells were transfected in duplicate with expression vectors coding for HA-tagged ubiquitin, AU.1-tagged PLC-γ1 and/or myc-tagged Itch as indicated, and one culture of each pair was stimulated with 3 μM ionomycin for 30 min before cell extraction. Cell extracts were immunoprecipitated with AU.1 antibodies and analyzed for ubiquitin-modified or total immunoprecipitated PLC-γ1 (upper two panels), or were directly analyzed for PLC-γ1 and Itch expression by immunoblotting (lower two panels).\nas §1, with “The extent of anergy induction was evaluated by intracellular cytokine staining or in standard proliferation assays (id.). Restimulation of D5 cells was done with 1 μg/ml anti-CD3 with or without 2.5 μg/ml anti-CD28 or with 20 nM PMA or 1 μM Ionomycin or both. HEK 293 cells were grown and transfected with Ca2+ phosphate using standard protocols.” left out"}, "[2]": {"test_system": "TH1 cells from 5CC7 TCR-transgenic mice", "experiment": "Immune synapse formation by 5CC7 TCR-transgenic TH1 cells on lipid bilayers", "assay_type": "cell-based", "details": "5CC7 T cells pretreated with ionomycin for 16 h", "experimental": "as §2\nThe formation of immune synapses was evaluated as described for the experiments shown in FIG. 19, with TH1 cells from wild-type or Cblb−/− 5CC7 TCR-transgenic mice and lipid bilayers displaying ICAM-1 and I-Ek pigeon cytochrome C (PCC) molecules. […] Below the image series is a histogram that quantifies the imaging results. […]"}},
  "note": "Where a SMILES comes first, the peptide text is derived from it. The star is where a group is joined. Cbz = O=C(OCc1ccccc1)*",
  "data": [
    {"compound": "CC(C)C[C@@H](C=O)NC(=O)[C@H](CC(C)C)NC(=O)[C@H](CC(C)C)NC(=O)OCc1ccccc1", "note": "[MG132] (Cbz-Leu-Leu-Leu-aldehyde)", "values": [
      {"measurement": "PLC-γ1 degradation", "setting": "D5 T cells; ionomycin 16 h, then incubation with 10 μM MG132", "value": "did not prevent"},
      {"measurement": "accumulation of a modified (mono-ubiquitinated) form of PKCθ", "setting": "D5 T cells; only in anergized T cells, long exposure", "value": "increased the accumulation"}
    ]},
    {"compound": "COc1ccc2c(c1)CC[C@@H]1[C@@H]2CC[C@]2(C)[C@@H](NCCCCCCN3C(=O)C=CC3=O)CC[C@@H]12", "note": "[U73122]", "values": [
      {"measurement": "U73122 concentrations at which the effects were observed", "setting": "AND T cell blasts; 3 independent experiments", "value": "0.1 to 1", "unit": "µM"},
      {"measurement": "effect on established mature synapses", "setting": "AND T cell blasts; added after mature synapses formed", "value": "disintegration of the outer LFA-1 ring"}
    ]},
    {"compound": "C[C@H](CCC(=O)O)C[C@H](C)C[C@H](C)C(=O)/C=C(\\O)[C@H](C)C[C@H](C)C/C=C/[C@@H](C)[C@@H](O)[C@@H](C)[C@@H](O)C[C@@H]1CC[C@@](C)([C@H]2CC[C@@](C)([C@@H](C)O)O2)O1", "note": "[ionomycin]", "values": [
      {"measurement": "PKCθ turnover versus mock-treated T cells", "setting": "[1]", "value": "significantly more rapidly"},
      {"measurement": "PLC-γ1 mRNA levels", "setting": "D5 cells", "value": "remained constant"},
      {"measurement": "PLC-γ1 ubiquitination", "setting": "HEK 293 cells", "value": "induced PLC-γ1 ubiquitination"},
      {"measurement": "synapse stability", "setting": "[2]", "value": "synapse disorganization"},
      {"measurement": "time to form the mature synapse on contact with the bilayer", "setting": "[2]", "value": "< 5", "unit": "min"},
      {"measurement": "PLC-γ1, PKCθ and RasGAP protein levels", "setting": "D5 T cells; D5 T cells, ionomycin pretreatment followed by cell-cell contact, immunoblot", "value": "pronounced decrease"},
      {"measurement": "increase in total protein ubiquitination", "setting": "D5 T cells; ionomycin pretreatment, D5 T cells", "value": "~2", "unit": "fold"},
      {"measurement": "Cbl-b protein induction", "setting": "D5 T cells; ionomycin-treated D5 cells", "value": "even more highly induced"},
      {"measurement": "Itch protein levels, increase", "setting": "D5 T cells; ionomycin-treated D5 cells", "value": "~3", "unit": "fold"},
      {"measurement": "Nedd4 protein levels", "setting": "D5 T cells; ionomycin-treated D5 cells", "value": "no change"},
      {"measurement": "Tsg101 protein levels, increase", "setting": "D5 T cells; ionomycin-treated D5 cells", "value": "~3", "unit": "fold"}
    ]}
  ]
}
